In the test the target is T1, hNaV1.7 (Homo sapiens, UniProt Q15858).
T1 construct: expressed in transfected cells
The test is described as follows: Patch voltage clamp electrophysiology (EP), Syncropatch 384PE, Nav1.7 in CHO cells.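 Also: Nav1.7 stably expressed from cDNA in CHO cells, holding potential of −50 mV kept for the entire experiment.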 Type of test: cell-based. To be noted: holding potential −50 mV, inhibition based on 7.5 min compound incubation, read-out: hNaV1.7 EP_SP. A general note: Patch clamp records ionic current or voltage across a cell membrane.

Here are results for 34 compounds from patent US20240228463A1, “SODIUM CHANNEL INHIBITORS AND METHODS OF DESIGNING SAME” (Genentech, Inc., priority 2021, published 2024).

T1 sequence (Q15858 1-1977 isoform Q15858-3): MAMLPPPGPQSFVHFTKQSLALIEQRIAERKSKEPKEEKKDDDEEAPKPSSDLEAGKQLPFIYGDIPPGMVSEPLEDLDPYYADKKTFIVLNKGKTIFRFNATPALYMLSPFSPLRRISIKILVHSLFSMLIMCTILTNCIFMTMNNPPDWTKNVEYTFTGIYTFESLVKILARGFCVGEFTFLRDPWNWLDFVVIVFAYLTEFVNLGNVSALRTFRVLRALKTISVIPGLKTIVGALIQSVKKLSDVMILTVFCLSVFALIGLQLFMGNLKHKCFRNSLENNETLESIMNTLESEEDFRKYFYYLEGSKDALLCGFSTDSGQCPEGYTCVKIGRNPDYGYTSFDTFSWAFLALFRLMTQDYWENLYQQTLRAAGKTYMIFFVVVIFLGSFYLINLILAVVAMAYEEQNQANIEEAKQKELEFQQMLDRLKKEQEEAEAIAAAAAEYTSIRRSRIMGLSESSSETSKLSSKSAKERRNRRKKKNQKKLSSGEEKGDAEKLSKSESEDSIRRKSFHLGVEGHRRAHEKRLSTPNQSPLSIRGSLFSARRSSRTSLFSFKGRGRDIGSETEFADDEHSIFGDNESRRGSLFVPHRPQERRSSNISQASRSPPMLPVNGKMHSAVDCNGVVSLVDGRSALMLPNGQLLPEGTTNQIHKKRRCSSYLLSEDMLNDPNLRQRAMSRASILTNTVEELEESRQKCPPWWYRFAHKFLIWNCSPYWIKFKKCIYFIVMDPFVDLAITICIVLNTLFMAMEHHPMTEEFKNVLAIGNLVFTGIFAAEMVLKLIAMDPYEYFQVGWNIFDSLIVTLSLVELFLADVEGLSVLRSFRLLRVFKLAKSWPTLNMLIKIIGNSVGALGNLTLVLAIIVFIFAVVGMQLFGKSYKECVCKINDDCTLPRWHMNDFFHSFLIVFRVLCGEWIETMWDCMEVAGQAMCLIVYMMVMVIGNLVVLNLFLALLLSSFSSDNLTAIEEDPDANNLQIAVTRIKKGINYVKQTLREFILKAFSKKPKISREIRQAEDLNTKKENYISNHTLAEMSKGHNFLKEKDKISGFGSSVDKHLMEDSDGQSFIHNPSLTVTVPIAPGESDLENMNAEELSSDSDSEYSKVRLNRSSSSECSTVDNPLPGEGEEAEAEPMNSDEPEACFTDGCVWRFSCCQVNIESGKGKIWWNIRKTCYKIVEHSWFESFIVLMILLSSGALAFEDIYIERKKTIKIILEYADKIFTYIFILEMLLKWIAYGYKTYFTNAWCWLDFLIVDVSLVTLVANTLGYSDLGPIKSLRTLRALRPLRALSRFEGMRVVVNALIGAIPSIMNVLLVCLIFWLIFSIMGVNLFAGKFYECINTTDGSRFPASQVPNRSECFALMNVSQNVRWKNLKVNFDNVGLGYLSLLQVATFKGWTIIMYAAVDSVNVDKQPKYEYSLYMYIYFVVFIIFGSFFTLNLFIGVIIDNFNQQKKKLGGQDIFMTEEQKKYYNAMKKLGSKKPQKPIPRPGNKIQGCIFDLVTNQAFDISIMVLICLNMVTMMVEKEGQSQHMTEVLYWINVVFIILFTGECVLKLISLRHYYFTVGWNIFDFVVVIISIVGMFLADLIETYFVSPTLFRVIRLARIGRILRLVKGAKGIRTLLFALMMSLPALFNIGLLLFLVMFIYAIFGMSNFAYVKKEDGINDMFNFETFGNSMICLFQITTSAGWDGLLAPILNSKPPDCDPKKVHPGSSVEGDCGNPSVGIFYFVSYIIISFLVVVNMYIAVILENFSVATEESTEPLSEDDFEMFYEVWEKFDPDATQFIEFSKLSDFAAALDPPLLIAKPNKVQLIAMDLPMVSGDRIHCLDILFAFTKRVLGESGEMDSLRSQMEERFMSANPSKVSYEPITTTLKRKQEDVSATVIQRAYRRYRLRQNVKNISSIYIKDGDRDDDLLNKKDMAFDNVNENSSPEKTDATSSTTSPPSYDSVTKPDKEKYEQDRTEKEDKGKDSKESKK

Consider `COc1ccc(F)cc1-c1nccc2cc(S(=O)(=O)NC(=O)c3cc(Cl)c(OCC4CCCC4)cc3F)ccc12` [Example 72, 5-chloro-4-(cyclopentylmethoxy)-2-fluoro-N-((1-(5-fluoro-2-methoxy-phenyl)isoquinolin-6-yl)sulfonyl)benzamide], for which the IC50 was 340 nM. On to `O=C(NS(=O)(=O)N1CCCC12CC2)c1cc(Cl)c(OCC2CCCC2)cc1F` [Example 229, N-((4-azaspiro[2.4]heptan-4-yl)sulfonyl)-5-chloro-4-(cyclopentylmethoxy)-2-fluorobenzamide], for which the IC50 was determined as 12 nM. For `CCc1cc(C(=O)NS(=O)(=O)N2CCC(OC3CN(C)C3)CC2)c(F)cc1OCC1CCCC1` [Example 3, 4-(cyclopentylmethoxy)-5-ethyl-2-fluoro-N-((4-((1-methylazetidin-3-yl)oxy)piperidin-1-yl)sulfonyl) benzamide], the IC50 stood at 22 nM.

In the case of `CN(C)C1CCCN(c2ccc(S(=O)(=O)NC(=O)c3cc(Cl)c(OCC4CCCC4)cc3F)c(F)c2)C1` (stereo not shown) [Example 205, 5-chloro-4-(cyclopentylmethoxy)-N-((4-(3-(dimethylamino)piperidin-1-yl)-2-fluorophenyl)sulfonyl)-2-fluorobenzamide], the IC50 is 39 nM. On to `O=S(=O)(Nc1noc2cc(OCC3CCCC3)c(Cl)cc12)N1CCC(O[C@H]2CCNC2)CC1` (single isomer, unassigned) [Example 90, 2,2,2-trifluoroacetate], for which the IC50 was found to be 400 nM.

Regarding `Cn1ccnc1COc1ccc(S(=O)(=O)NC(=O)c2cc(Cl)c(OCC3CCCC3)cc2F)cc1` [Example 312, 5-chloro-4-(cyclopentylmethoxy)-2-fluoro-N-((4-((1-methyl-1H-imidazol-2-yl)methoxy)phenyl)sulfonyl)benzamide], the IC50 was 83 nM.

For the compound `Cc1cccc(COc2ccc(S(=O)(=O)NC(=O)c3cc(Cl)c(OCC4CCCC4)cc3F)cc2)c1` [Example 260, 5-chloro-4-(cyclopentylmethoxy)-2-fluoro-N-((4-((3-methylbenzyl)oxy)phenyl)sulfonyl)benzamide], the IC50 turned out to be 200 nM. On to `O=C(NS(=O)(=O)N1CCCCC1)c1cc(Cl)c(OCC2CCCC2)cc1F` [Example 21, 5-chloro-4-(cyclopentylmethoxy)-2-fluoro-N-(piperidin-1-ylsulfonyl)benzamide], for which the IC50 turned out to be 14 nM. The same measure for `Cn1cc(COc2ccc(S(=O)(=O)NC(=O)c3cc(Cl)c(OCC4CCCC4)cc3F)cc2)cn1` [Example 299, 5-chloro-4-(cyclopentylmethoxy)-2-fluoro-N-((4-((1-methyl-1H-pyrazol-4-yl)methoxy)phenyl)sulfonyl)benzamide]: 38 nM; for `O=C(NS(=O)(=O)c1ccc(Cn2cncn2)cc1)c1cc(Cl)c(OCC2CCCC2)cc1F` [Example 292, N-((4-((1H-1,2,4-triazol-1-yl)methyl)phenyl)sulfonyl)-5-chloro-4-(cyclopentylmethoxy)-2-fluorobenzamide]: 430 nM. The value for `O=C(NS(=O)(=O)CCOCc1ccccc1)c1cc(Cl)c(OCC2CCCC2)cc1F` [Example 274, N-((2-(benzyloxy)ethyl)sulfonyl)-5-chloro-4-(cyclopentylmethoxy)-2-fluorobenzamide] was 230 nM. The value for `O=C(NS(=O)(=O)c1ccc(OC2CCNC2)cc1)c1cc(Cl)c(OCC2CCCC2)cc1F` (stereo not shown) [Example 325, 5-chloro-4-(cyclopentylmethoxy)-2-fluoro-N-((4-(pyrrolidin-3-yloxy)phenyl)sulfonyl)benzamide] was 240 nM.

Turning to `N[C@]12C[C@H]1CN(S(=O)(=O)NC(=O)c1cc(Cl)c(OCC3CCCC3)cc1F)C2` (single isomer, unassigned) [Example 217, 2,2,2-trifluoroacetate], the IC50 came out at 370 nM.

For `CN(C)[C@H]1CCCC[C@@H]1Nc1ccc(S(=O)(=O)Nc2nc3ccc(OCC4CCCC4)c(Cl)c3s2)c(F)c1` [Example 333, N-(7-chloro-6-(cyclopentylmethoxy)benzo[d]thiazol-2-yl)-4-(((1S,2S)-2-(dimethylamino)cyclohexyl)amino)-2-fluorobenzenesulfonamide], the IC50 was 65 nM. `CC(C)(C)OC(=O)C1CC2C(C1)C2NS(=O)(=O)NC(=O)c1cc(Cl)c(OCC2CCCC2)cc1F` (stereo not shown) [Example 327, tert-butyl 6-((N-(5-chloro-4-(cyclopentylmethoxy)-2-fluorobenzoyl)-sulfamoyl)amino)bicyclo[3.1.0]hexane-3-carboxylate]: the IC50 was 920 nM.

As to `CN(C)[C@H]1C[C@@H](c2cccc(C(F)(F)F)c2)CC[C@@H]1Oc1ccc(S(=O)(=O)NC(=O)c2cc(C3CC3)ccc2F)c(F)c1` [Example 75, 5-cyclopropyl-N-((4-(((1S,2S,4S)-2-(dimethylamino)-4-(3-(trifluoromethyl)-phenyl)cyclohexyl)oxy)-2-fluorophenyl)sulfonyl)-2-fluorobenzamide], the IC50 was 120 nM.

On to `CO[C@H]1CC[C@H](S(=O)(=O)NC(=O)c2cc(Cl)c(OCC3CCCC3)cc2F)CC1` [Example 86, trans-5-chloro-4-(cyclopentylmethoxy)-2-fluoro-N-((4-methoxycyclohexyl)sulfonyl)benzamide], for which the IC50 came to 100 nM. The same measure for `O=C(NS(=O)(=O)N1CC(O[C@@H]2CCNC2)C1)c1cc(Cl)c(OCC2CCCC2)cc1F` (single isomer, unassigned) [Example 31, 2,2,2-trifluoroacetate]: 390 nM. The value for `CN1CCC(S(=O)(=O)NC(=O)c2cc(Cl)c(OCC3CCCC3)cc2F)C1` (stereo not shown) [Example 323, 5-chloro-4-(cyclopentylmethoxy)-2-fluoro-N-((1-methylpyrrolidin-3-yl)sulfonyl)benzamide] was 470 nM; that for `CN(C)[C@H]1CCCC[C@@H]1Oc1ccc(S(=O)(=O)Nc2nc3cccc(Cl)c3s2)c(F)c1` [Example 99, N-(7-chlorobenzo[d]thiazol-2-yl)-4-(((1S,2S)-2-(dimethylamino)cyclohexyl)-oxy)-2-fluorobenzenesulfonamide] was 430 nM. For `CC(=O)N1CCc2cccc(COc3ccc(S(=O)(=O)NC(=O)c4cc(Cl)c(OCC5CCCC5)cc4F)cc3)c2C1` [Example 297, N-((4-((2-acetyl-1,2,3,4-tetrahydroisoquinolin-8-yl)methoxy)phenyl)sulfonyl)-5-chloro-4-(cyclopentylmethoxy)-2-fluorobenzamide], the IC50 is 22 nM. For `O=C(NS(=O)(=O)N1CC[C@H]2CCC[C@@H]21)c1cc(Cl)c(OCC2CCCC2)cc1F` (single isomer, unassigned) [Example 221], the IC50 stood at 16 nM.

`COc1cc(F)c(C(=O)NS(=O)(=O)c2ccc(O[C@H]3CC[C@H](c4cccc(C(F)(F)F)c4)C[C@@H]3N(C)C)cc2F)cc1C1CC1` [Example 74, 5-cyclopropyl-N-((4-(((1S,2S,4S)-2-(dimethylamino)-4-(3-(trifluoro-methyl)phenyl)cyclohexyl)oxy)-2-fluorophenyl)sulfonyl)-2-fluoro-4-methoxybenzamide]: the IC50 was 5.5 nM. The value for `O=C(NS(=O)(=O)c1ccc(OCC2CNC2)cc1)c1cc(Cl)c(OCC2CCCC2)cc1F` [Example 296, N-((4-(azetidin-3-ylmethoxy)phenyl)sulfonyl)-5-chloro-4-(cyclopentylmethoxy)-2-fluorobenzamide] was 280 nM; that for `O=C(NS(=O)(=O)N1CCC(O[C@H]2CCNC2)CC1)c1cc(Cl)c(OCC2CCCC2)cc1F` (single isomer, unassigned) [Example 37, 2,2,2-trifluoroacetate] was 77 nM; that for `O=C(NS(=O)(=O)N1CCC(OCc2ccccc2)CC1)c1cc(Cl)c(OCC2CCCC2)cc1F` [Example 41, N-((4-(benzyloxy)piperidin-1-yl)sulfonyl)-5-chloro-4-(cyclopentylmethoxy)-2-fluorobenzamide] was 170 nM. The same measure for `Cc1ccc(COc2ccc(S(=O)(=O)NC(=O)c3cc(Cl)c(OCC4CCCC4)cc3F)cc2)cc1` [Example 313, 5-chloro-4-(cyclopentylmethoxy)-2-fluoro-N-((4-((4-methylbenzyl)oxy)phenyl)sulfonyl)benzamide]: 140 nM; for `O=C(NS(=O)(=O)c1ccc(OCc2ccccc2)cc1)c1cc(Cl)c(OCC2CCCC2)cc1F` [Example 294, N-((4-(benzyloxy)phenyl)sulfonyl)-5-chloro-4-(cyclopentylmethoxy)-2-fluorobenzamide]: 130 nM. The value for `O=C(NS(=O)(=O)c1ccc(F)c2ncccc12)c1cc(Cl)c(OCC2CCCC2)cc1F` [Example 279, 5-chloro-4-(cyclopentylmethoxy)-2-fluoro-N-((8-fluoroquinolin-5-yl)sulfonyl)benzamide] was 500 nM; that for `O=C(NS(=O)(=O)c1ccc2c(c1)CCCC2)c1cc(Cl)c(OCC2CCCC2)cc1F` [Example 261, 5-chloro-4-(cyclopentylmethoxy)-2-fluoro-N-((5,6,7,8-tetrahydronaphthalen-2-yl)sulfonyl)benzamide] was 530 nM. On to `NC[C@@H]1CCN(S(=O)(=O)NC(=O)c2cc(Cl)c(OCC3CCCC3)cc2F)C1` [Example 232, (S)—N-((3-(aminomethyl)pyrrolidin-1-yl)sulfonyl)-5-chloro-4-(cyclopentylmethoxy)-2-fluorobenzamide 2,2,2-trifluoroacetate], for which the IC50 stood at 880 nM.

Consider `O=C(NS(=O)(=O)c1ccc(OCc2ccncc2)cc1)c1cc(Cl)c(OCC2CCCC2)cc1F` [Example 85, 5-chloro-4-(cyclopentylmethoxy)-2-fluoro-N-((4-(pyridin-4-ylmethoxy)-phenyl)sulfonyl)benzamide], for which the IC50 stood at 16 nM. For the compound `O=C(NS(=O)(=O)c1ccc(OCC2CCNC2)cc1)c1cc(Cl)c(OCC2CCCC2)cc1F` (stereo in doubt) [Example 302, (R)-5-chloro-4-(cyclopentylmethoxy)-2-fluoro-N-((4-(pyrrolidin-3-ylmethoxy)phenyl)sulfonyl)benzamide], the IC50 was 120 nM. The value for `CN1CCCC(OC2CCN(S(=O)(=O)NC(=O)c3cc(Cl)c(OCC4CCCC4)cc3F)CC2)C1` (stereo not shown) [Example 52, 5-chloro-4-(cyclopentylmethoxy)-2-fluoro-N-((4-((1-methylpiperidin-3-yl)oxy)piperidin-1-yl)sulfonyl) benzamide] was 170 nM.
